≈ marks a conversion by molar mass, not a printed value.
Test system: Pasteurella multocida
Test: minimum inhibitory concentration (MIC)
Description: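 Broth microdilution MIC (Sensititre BOPO7F bovine plate, CLSI methods) of 19 antimicrobials against field isolates of P. multocida, M. haemolytica, H. somni (deep nasopharyngeal swabs) and E. coli, Enterococcus spp. (rectal swabs) from weaned dairy heifers. Incubation 16-24 h at 35 C. MIC is the lowest concentration preventing visible growth. Values with <= or > lie at the tested range limits. Trimethoprim-sulfamethoxazole is given as the trimethoprim component of a 1:19 mixture.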

CCN1CCN(c2cc3c(cc2F)c(=O)c(C(=O)O)cn3C2CC2)CC1 [Enrofloxacin]
Conditions | minimum inhibitory concentration [µg/mL]
isolate (source animal id): 10 | 1 (≈ 2.78 µM)
isolate (source animal id): 11 | 1 (≈ 2.78 µM)
isolate (source animal id): 12 | 1 (≈ 2.78 µM)
isolate (source animal id): 19 | 1 (≈ 2.78 µM)
isolate (source animal id): 23 | 1 (≈ 2.78 µM)
isolate (source animal id): 26 | 2 (≈ 5.56 µM)
isolate (source animal id): 98 | 2 (≈ 5.56 µM)
isolate (source animal id): 104 | 0.5 (≈ 1.39 µM)
isolate (source animal id): 115 | ≤ 0.12
isolate (source animal id): 117 | > 2
isolate (source animal id): 118 | 2 (≈ 5.56 µM)
isolate (source animal id): 121 | ≤ 0.12
isolate (source animal id): 124 | 1 (≈ 2.78 µM)
isolate (source animal id): 125 | 1 (≈ 2.78 µM)
isolate (source animal id): 128 | ≤ 0.12
isolate (source animal id): 131 | > 2
isolate (source animal id): 135 | > 2
isolate (source animal id): 136 | ≤ 0.12
isolate (source animal id): 140 | 1 (≈ 2.78 µM)
isolate (source animal id): 144 | 1 (≈ 2.78 µM)
isolate (source animal id): 146 | 1 (≈ 2.78 µM)
isolate (source animal id): 150 | ≤ 0.12
isolate (source animal id): 151 | ≤ 0.12
isolate (source animal id): 153 | 1 (≈ 2.78 µM)
isolate (source animal id): 155 | 0.5 (≈ 1.39 µM)
isolate (source animal id): 157 | 2 (≈ 5.56 µM)
isolate (source animal id): 160 | ≤ 0.12
isolate (source animal id): 164 | ≤ 0.12
isolate (source animal id): 165 | ≤ 0.12
isolate (source animal id): 167 | ≤ 0.12
isolate (source animal id): 168 | 2 (≈ 5.56 µM)
isolate (source animal id): 169 | ≤ 0.12
isolate (source animal id): 170 | ≤ 0.12
isolate (source animal id): 171 | ≤ 0.12
isolate (source animal id): 172 | ≤ 0.12
isolate (source animal id): 173 | 2 (≈ 5.56 µM)
isolate (source animal id): 174 | ≤ 0.12
isolate (source animal id): 175 | ≤ 0.12
isolate (source animal id): 176 | ≤ 0.12
isolate (source animal id): 177 | ≤ 0.12
isolate (source animal id): 178 | ≤ 0.12
isolate (source animal id): 179 | ≤ 0.12
isolate (source animal id): 182 | ≤ 0.12
isolate (source animal id): 192 | ≤ 0.12
isolate (source animal id): 193 | ≤ 0.12
isolate (source animal id): 195 | ≤ 0.12
isolate (source animal id): 196 | ≤ 0.12
isolate (source animal id): 197 | ≤ 0.12
isolate (source animal id): 198 | 2 (≈ 5.56 µM)
isolate (source animal id): 199 | ≤ 0.12
isolate (source animal id): 200 | ≤ 0.12
isolate (source animal id): 201 | ≤ 0.12
isolate (source animal id): 203 | ≤ 0.12
isolate (source animal id): 204 | ≤ 0.12
isolate (source animal id): 205 | 2 (≈ 5.56 µM)
isolate (source animal id): 206 | ≤ 0.12
isolate (source animal id): 207 | ≤ 0.12
isolate (source animal id): 208 | ≤ 0.12
isolate (source animal id): 209 | ≤ 0.12
isolate (source animal id): 210 | 2 (≈ 5.56 µM)
isolate (source animal id): 213 | ≤ 0.12
isolate (source animal id): 216 | ≤ 0.12
isolate (source animal id): 223 | > 2
isolate (source animal id): 227 | ≤ 0.12
isolate (source animal id): 229 | 2 (≈ 5.56 µM)
isolate (source animal id): 233 | 2 (≈ 5.56 µM)
isolate (source animal id): 234 | 2 (≈ 5.56 µM)
isolate (source animal id): 237 | > 2
isolate (source animal id): 241 | > 2
isolate (source animal id): 245 | > 2
isolate (source animal id): 247 | 0.5 (≈ 1.39 µM)
isolate (source animal id): 250 | 1 (≈ 2.78 µM)
isolate (source animal id): 254 | 2 (≈ 5.56 µM)
isolate (source animal id): 255 | 2 (≈ 5.56 µM)
isolate (source animal id): 258 | ≤ 0.12
isolate (source animal id): 261 | 2 (≈ 5.56 µM)
isolate (source animal id): 262 | 1 (≈ 2.78 µM)
isolate (source animal id): 269 | ≤ 0.12
isolate (source animal id): 270 | 2 (≈ 5.56 µM)
isolate (source animal id): 274 | > 2
isolate (source animal id): 275 | 2 (≈ 5.56 µM)
isolate (source animal id): 276 | > 2
isolate (source animal id): 277 | ≤ 0.12
isolate (source animal id): 278 | 2 (≈ 5.56 µM)
isolate (source animal id): 279 | 0.5 (≈ 1.39 µM)
isolate (source animal id): 280 | 0.5 (≈ 1.39 µM)
isolate (source animal id): 284 | 2 (≈ 5.56 µM)
isolate (source animal id): 285 | 1 (≈ 2.78 µM)
isolate (source animal id): 287 | 2 (≈ 5.56 µM)
isolate (source animal id): 290 | ≤ 0.12
isolate (source animal id): 294 | ≤ 0.12
isolate (source animal id): 295 | ≤ 0.12
isolate (source animal id): 296 | 1 (≈ 2.78 µM)
isolate (source animal id): 307 | ≤ 0.12
isolate (source animal id): 310 | ≤ 0.12
isolate (source animal id): 311 | ≤ 0.12
isolate (source animal id): 312 | 1 (≈ 2.78 µM)
isolate (source animal id): 313 | 1 (≈ 2.78 µM)
isolate (source animal id): 315 | 1 (≈ 2.78 µM)
isolate (source animal id): 316 | 1 (≈ 2.78 µM)

CC[C@H]1OC(=O)C[C@@H](O)[C@H](C)[C@@H](O[C@@H]2O[C@H](C)[C@@H](O)[C@H](N(C)C)[C@H]2O)[C@@H](CCN2CCCCC2)C[C@@H](C)C(=O)/C=C/C(C)=C/[C@@H]1CN1CCCCC1 [Tildipirosin]
Conditions | minimum inhibitory concentration [µg/mL]
isolate (source animal id): 10 | > 16
isolate (source animal id): 11 | > 16
isolate (source animal id): 12 | > 16
isolate (source animal id): 19 | > 16
isolate (source animal id): 23 | > 16
isolate (source animal id): 26 | > 16
isolate (source animal id): 98 | > 16
isolate (source animal id): 104 | > 16
isolate (source animal id): 115 | > 16
isolate (source animal id): 117 | > 16
isolate (source animal id): 118 | > 16
isolate (source animal id): 121 | > 16
isolate (source animal id): 124 | > 16
isolate (source animal id): 125 | > 16
isolate (source animal id): 128 | > 16
isolate (source animal id): 131 | > 16
isolate (source animal id): 135 | > 16
isolate (source animal id): 136 | > 16
isolate (source animal id): 140 | > 16
isolate (source animal id): 144 | > 16
isolate (source animal id): 146 | > 16
isolate (source animal id): 150 | > 16
isolate (source animal id): 151 | > 16
isolate (source animal id): 153 | > 16
isolate (source animal id): 155 | > 16
isolate (source animal id): 157 | > 16
isolate (source animal id): 160 | > 16
isolate (source animal id): 164 | > 16
isolate (source animal id): 165 | > 16
isolate (source animal id): 167 | ≤ 1
isolate (source animal id): 168 | > 16
isolate (source animal id): 169 | ≤ 1
isolate (source animal id): 170 | 2 (≈ 2.72 µM)
isolate (source animal id): 171 | ≤ 1
isolate (source animal id): 172 | ≤ 1
isolate (source animal id): 173 | > 16
isolate (source animal id): 174 | ≤ 1
isolate (source animal id): 175 | ≤ 1
isolate (source animal id): 176 | ≤ 1
isolate (source animal id): 177 | ≤ 1
isolate (source animal id): 178 | ≤ 1
isolate (source animal id): 179 | ≤ 1
isolate (source animal id): 182 | 2 (≈ 2.72 µM)
isolate (source animal id): 192 | ≤ 1
isolate (source animal id): 193 | ≤ 1
isolate (source animal id): 195 | ≤ 1
isolate (source animal id): 196 | ≤ 1
isolate (source animal id): 197 | 2 (≈ 2.72 µM)
isolate (source animal id): 198 | > 16
isolate (source animal id): 199 | ≤ 1
isolate (source animal id): 200 | ≤ 1
isolate (source animal id): 201 | ≤ 1
isolate (source animal id): 203 | ≤ 1
isolate (source animal id): 204 | ≤ 1
isolate (source animal id): 205 | > 16
isolate (source animal id): 206 | ≤ 1
isolate (source animal id): 207 | ≤ 1
isolate (source animal id): 208 | ≤ 1
isolate (source animal id): 209 | ≤ 1
isolate (source animal id): 210 | > 16
isolate (source animal id): 213 | 2 (≈ 2.72 µM)
isolate (source animal id): 216 | ≤ 1
isolate (source animal id): 223 | > 16
isolate (source animal id): 227 | ≤ 1
isolate (source animal id): 229 | > 16
isolate (source animal id): 233 | > 16
isolate (source animal id): 234 | > 16
isolate (source animal id): 237 | > 16
isolate (source animal id): 241 | > 16
isolate (source animal id): 245 | > 16
isolate (source animal id): 247 | > 16
isolate (source animal id): 250 | > 16
isolate (source animal id): 254 | > 16
isolate (source animal id): 255 | > 16
isolate (source animal id): 258 | ≤ 1
isolate (source animal id): 261 | > 16
isolate (source animal id): 262 | > 16
isolate (source animal id): 269 | ≤ 1
isolate (source animal id): 270 | > 16
isolate (source animal id): 274 | > 16
isolate (source animal id): 275 | > 16
isolate (source animal id): 276 | > 16
isolate (source animal id): 277 | ≤ 1
isolate (source animal id): 278 | > 16
isolate (source animal id): 279 | > 16
isolate (source animal id): 280 | > 16
isolate (source animal id): 284 | > 16
isolate (source animal id): 285 | > 16
isolate (source animal id): 287 | > 16
isolate (source animal id): 290 | > 16
isolate (source animal id): 294 | > 16
isolate (source animal id): 295 | > 16
isolate (source animal id): 296 | > 16
isolate (source animal id): 307 | > 16
isolate (source animal id): 310 | > 16
isolate (source animal id): 311 | > 16
isolate (source animal id): 312 | > 16
isolate (source animal id): 313 | > 16
isolate (source animal id): 315 | > 16
isolate (source animal id): 316 | > 16

Reference: the supplement of paper PMC8612539
